This is an account of results in ChEMBL document CHEMBL2203155, “Structure-based discovery of C-2 substituted imidazo-pyrrolopyridine JAK1 inhibitors with improved selectivity over JAK2” (Bioorg Med Chem Lett, 2012).

Data set [1] in a line: Selectivity ratio of Ki for JAK2 kinase domain to Ki for JAK1 kinase domain.
Data set [2] addresses T1, Tyrosine-protein kinase JAK1 (Homo sapiens, UniProt P23458). The class given is cell-based, TF-1.
For data set [3], the target named is T1, Tyrosine-protein kinase JAK1.
Data set [4] is described as follows: Oral bioavailability in Sprague-Dawley rat at 2 mg/kg administered as suspension. The class given is ADME, organism-based. Conditions: in vivo.
Data set [5] addresses T2, Cytochrome P450 1A2 (Homo sapiens, UniProt P05177).
T2 sequence (P05177 whole entry): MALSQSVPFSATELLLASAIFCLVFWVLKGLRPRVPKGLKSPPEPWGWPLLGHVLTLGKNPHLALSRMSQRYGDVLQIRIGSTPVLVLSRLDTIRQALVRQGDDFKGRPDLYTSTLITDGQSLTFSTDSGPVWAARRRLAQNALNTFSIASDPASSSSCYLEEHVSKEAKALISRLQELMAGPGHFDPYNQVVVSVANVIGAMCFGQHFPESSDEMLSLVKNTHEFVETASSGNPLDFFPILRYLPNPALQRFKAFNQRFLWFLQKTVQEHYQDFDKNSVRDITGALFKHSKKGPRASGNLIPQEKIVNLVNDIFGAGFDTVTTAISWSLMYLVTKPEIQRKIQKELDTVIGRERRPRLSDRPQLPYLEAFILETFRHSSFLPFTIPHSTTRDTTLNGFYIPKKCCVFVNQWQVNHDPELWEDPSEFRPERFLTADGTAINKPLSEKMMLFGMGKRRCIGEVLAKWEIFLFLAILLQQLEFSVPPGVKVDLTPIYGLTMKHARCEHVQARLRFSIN
Nature of the data set: Inhibition of CYP1A2. The class given is ADME.

The target in data set [6] is Leucine-rich repeat serine/threonine-protein kinase 2 (Homo sapiens) (UniProt Q5S007). Nature of the data set: Inhibition of LRRK2 at 0.1 uM.
The target in data set [7] is Cytochrome P450 3A4 (Homo sapiens, UniProt P08684). Briefly: Inhibition of CYP3A4. The class given is ADME.
The target of data set [8] is Cytochrome P450 2C19 (Homo sapiens, UniProt P33261). Nature of the data set: Inhibition of CYP2C19. In kind it is ADME.
The nature of data set [9]: AUC in Sprague-Dawley rat at 2 mg/kg, po administered as suspension. Conditions: plasma. Set-up: dose 2 mg/kg, route oral. In kind it is ADME, organism-based.
Data set [10] can be described thus: Volume of distribution at steady state in Sprague-Dawley rat at 0.4 mg/kg, iv administered as bolus dose. More on the design: dose 0.4 mg/kg, route intravenous. Conditions: in vivo, read-out: Vdss. The class given is ADME, organism-based.
The target in data set [11] is Cytochrome P450 2D6 (Homo sapiens, UniProt P10635). Briefly: Inhibition of CYP2D6. In kind it is ADME.
Data set [12] is described as follows: Apparent permeability from apical to basal side of MDCK cells. In kind it is ADME, cell-based, Canis lupus familiaris. Conditions: dog.
The nature of data set [13]: Aqueous solubility of the compound. In kind it is physicochemical. Conditions: buffer.
Data set [14] can be described thus: Clearance in Sprague-Dawley rat at 0.4 mg/kg, iv administered as bolus dose. The class given is ADME, organism-based. More on the design: dose 0.4 mg/kg, route intravenous. Conditions: in vivo.
A short description of data set [15]: Half life in Sprague-Dawley rat at 0.4 mg/kg, iv administered as bolus dose. In kind it is ADME, organism-based. More on the design: dose 0.4 mg/kg, route intravenous. Particulars: in vivo.
For data set [16], the target named is Macrophage colony-stimulating factor 1 receptor (Homo sapiens) (UniProt P07333). Briefly: Inhibition of CSF1R at 0.1 uM.
Data set [17] addresses Cytochrome P450 2C9 (Homo sapiens, UniProt P11712). Nature of the data set: Inhibition of CYP2C9. The class given is ADME.

Values after ≈ are worked out from the molar mass of the structure shown.

T1 sequence (P23458 whole entry): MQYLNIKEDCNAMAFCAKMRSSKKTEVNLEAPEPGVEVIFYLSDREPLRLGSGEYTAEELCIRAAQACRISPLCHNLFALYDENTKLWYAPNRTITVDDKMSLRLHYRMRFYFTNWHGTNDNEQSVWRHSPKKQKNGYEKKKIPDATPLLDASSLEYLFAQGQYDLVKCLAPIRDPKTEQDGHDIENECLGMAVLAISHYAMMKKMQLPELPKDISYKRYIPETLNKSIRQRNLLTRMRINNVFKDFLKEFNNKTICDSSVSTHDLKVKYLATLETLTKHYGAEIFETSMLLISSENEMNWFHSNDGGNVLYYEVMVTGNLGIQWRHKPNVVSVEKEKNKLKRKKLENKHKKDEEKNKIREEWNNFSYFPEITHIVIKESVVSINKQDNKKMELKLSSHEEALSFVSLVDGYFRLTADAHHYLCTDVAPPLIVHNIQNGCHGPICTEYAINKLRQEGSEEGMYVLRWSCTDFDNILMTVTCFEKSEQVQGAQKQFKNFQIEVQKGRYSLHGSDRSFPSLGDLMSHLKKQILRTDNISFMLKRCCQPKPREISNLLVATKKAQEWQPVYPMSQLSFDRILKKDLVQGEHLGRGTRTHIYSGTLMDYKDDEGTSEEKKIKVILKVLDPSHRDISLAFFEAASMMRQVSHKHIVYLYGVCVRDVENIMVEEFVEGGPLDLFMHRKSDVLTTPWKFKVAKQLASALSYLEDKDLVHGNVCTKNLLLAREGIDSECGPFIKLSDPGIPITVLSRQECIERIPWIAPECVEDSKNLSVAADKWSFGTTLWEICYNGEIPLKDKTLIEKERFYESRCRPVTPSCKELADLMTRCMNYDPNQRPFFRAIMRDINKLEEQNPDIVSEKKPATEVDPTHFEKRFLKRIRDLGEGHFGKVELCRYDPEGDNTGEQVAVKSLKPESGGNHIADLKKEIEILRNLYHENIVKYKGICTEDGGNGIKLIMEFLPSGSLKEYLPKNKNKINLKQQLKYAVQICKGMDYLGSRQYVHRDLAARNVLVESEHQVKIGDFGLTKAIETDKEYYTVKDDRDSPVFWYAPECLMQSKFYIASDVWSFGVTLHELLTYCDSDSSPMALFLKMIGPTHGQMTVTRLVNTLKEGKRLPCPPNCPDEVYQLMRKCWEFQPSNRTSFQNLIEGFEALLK
Leucine-rich repeat serine/threonine-protein kinase 2 (Homo sapiens), sequence (Q5S007 whole entry): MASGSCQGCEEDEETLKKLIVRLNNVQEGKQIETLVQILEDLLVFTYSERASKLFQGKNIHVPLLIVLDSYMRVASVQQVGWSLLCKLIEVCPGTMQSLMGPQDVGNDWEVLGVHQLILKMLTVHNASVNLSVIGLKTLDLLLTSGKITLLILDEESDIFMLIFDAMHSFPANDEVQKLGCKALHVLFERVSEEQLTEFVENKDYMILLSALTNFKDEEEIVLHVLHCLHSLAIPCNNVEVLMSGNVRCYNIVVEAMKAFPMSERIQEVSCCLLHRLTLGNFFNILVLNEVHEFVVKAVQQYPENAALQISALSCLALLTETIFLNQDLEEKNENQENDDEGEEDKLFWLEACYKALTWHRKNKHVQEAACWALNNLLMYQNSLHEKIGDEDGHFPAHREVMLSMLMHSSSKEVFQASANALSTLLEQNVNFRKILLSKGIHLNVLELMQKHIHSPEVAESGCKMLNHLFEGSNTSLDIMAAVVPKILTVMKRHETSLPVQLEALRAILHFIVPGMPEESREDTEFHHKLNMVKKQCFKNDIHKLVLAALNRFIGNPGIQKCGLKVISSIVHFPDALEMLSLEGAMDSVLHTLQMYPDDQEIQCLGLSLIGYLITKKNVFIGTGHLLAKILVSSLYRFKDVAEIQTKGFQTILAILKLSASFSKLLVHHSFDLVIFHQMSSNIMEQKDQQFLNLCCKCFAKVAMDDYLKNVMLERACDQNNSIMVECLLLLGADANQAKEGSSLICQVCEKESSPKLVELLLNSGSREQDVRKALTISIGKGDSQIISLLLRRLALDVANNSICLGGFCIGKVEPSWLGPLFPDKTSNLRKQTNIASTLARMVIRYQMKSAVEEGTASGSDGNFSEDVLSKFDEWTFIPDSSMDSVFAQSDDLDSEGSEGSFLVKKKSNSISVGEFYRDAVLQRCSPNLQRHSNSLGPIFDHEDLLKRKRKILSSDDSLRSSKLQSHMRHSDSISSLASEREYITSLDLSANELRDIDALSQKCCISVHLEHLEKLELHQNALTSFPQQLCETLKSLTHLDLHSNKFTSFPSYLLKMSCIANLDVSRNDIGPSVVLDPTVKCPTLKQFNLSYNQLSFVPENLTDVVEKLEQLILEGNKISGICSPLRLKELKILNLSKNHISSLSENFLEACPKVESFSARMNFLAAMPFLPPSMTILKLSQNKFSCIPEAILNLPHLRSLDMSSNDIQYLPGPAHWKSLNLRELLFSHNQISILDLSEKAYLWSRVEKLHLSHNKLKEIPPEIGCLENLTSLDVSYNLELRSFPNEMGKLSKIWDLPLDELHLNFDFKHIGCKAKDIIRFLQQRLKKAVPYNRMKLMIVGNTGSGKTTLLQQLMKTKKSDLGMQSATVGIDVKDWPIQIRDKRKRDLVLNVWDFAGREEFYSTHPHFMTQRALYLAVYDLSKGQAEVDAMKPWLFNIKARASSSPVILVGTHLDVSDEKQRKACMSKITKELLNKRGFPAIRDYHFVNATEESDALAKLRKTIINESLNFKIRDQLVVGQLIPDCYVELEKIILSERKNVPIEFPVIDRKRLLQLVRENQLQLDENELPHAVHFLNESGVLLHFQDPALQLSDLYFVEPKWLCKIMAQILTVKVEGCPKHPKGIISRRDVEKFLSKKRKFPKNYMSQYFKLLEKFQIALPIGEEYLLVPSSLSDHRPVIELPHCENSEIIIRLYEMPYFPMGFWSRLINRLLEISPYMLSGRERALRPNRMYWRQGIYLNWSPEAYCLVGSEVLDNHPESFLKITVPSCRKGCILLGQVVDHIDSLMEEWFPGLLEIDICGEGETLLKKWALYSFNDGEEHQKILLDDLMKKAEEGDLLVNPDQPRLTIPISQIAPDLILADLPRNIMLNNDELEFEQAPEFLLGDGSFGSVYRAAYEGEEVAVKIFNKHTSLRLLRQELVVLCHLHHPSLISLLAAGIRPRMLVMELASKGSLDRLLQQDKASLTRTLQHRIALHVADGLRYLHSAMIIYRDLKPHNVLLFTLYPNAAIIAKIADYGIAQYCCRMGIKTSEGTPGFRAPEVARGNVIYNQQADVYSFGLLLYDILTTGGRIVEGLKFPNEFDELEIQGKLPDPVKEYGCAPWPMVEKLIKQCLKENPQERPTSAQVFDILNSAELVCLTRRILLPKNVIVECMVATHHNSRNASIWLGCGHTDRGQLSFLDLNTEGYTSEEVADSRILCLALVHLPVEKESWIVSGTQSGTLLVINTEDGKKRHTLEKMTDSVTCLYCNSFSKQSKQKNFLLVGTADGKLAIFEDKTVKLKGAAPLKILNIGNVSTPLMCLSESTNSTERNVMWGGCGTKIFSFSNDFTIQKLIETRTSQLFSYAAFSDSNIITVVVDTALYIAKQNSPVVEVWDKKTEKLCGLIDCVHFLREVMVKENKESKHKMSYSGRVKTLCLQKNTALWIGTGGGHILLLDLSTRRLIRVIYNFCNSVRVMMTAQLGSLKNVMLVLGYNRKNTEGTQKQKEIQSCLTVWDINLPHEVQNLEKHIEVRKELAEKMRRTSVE
Cytochrome P450 2C19, sequence (P33261 whole entry): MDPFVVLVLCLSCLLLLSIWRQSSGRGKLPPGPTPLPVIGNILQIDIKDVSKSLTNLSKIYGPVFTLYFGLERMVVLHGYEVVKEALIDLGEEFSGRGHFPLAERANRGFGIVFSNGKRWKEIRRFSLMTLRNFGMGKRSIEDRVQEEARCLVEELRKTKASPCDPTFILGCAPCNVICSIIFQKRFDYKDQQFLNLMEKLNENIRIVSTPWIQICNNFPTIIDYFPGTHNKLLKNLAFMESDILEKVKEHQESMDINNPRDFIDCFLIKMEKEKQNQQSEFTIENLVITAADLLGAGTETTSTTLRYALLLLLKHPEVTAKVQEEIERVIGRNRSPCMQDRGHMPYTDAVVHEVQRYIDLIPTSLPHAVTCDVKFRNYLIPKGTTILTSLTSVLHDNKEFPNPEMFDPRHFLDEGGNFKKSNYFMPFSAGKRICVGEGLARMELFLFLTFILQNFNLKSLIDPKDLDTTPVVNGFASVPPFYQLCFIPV
Cytochrome P450 2D6, sequence (P10635 whole entry): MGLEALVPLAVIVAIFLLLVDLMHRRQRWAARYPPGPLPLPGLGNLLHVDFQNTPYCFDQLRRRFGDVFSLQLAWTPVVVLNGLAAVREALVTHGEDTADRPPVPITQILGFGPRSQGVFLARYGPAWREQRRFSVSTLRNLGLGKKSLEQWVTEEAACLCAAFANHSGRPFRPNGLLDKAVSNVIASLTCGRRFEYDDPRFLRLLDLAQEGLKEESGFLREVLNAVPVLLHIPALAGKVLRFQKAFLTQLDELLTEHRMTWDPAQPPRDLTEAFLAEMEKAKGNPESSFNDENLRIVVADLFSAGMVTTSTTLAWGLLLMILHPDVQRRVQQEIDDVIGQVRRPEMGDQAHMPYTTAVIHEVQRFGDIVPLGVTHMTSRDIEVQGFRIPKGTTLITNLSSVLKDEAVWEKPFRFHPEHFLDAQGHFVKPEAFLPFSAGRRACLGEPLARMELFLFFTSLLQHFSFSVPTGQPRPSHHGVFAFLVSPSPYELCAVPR

As for `CC(C)CS(=O)(=O)NCc1nc2cnc3[nH]ccc3c2n1C1CCN(CCC#N)CC1`, the Ratio Ki in data set [1] turned out to be 11. In [2], the EC50 (commonly the concentration that produces a half-maximal response) turned out to be 1200 nM. The inhibition constant Ki (as a rule, a dissociation constant, usually derived from enzyme kinetics or from competition with a known ligand) in [3] was 5.4 nM.

`CC(=O)NCCc1nc2cnc3[nH]ccc3c2n1C1CCCCC1` yielded a concentration for a half-maximal effect (EC50) in data set [2] of 210 nM.

Take `N#CCCN1CCC(n2c(CC3CCCO3)nc3cnc4[nH]ccc4c32)CC1` (racemic): the Ratio Ki in data set [1] stood at 1.5. This molecule also gave a 50% effective concentration (EC50) in data set [2] of 1300 nM. The molecule also registered a Ki in data set [3] of 24 nM.

With `CS(=O)(=O)NCCc1nc2cnc3[nH]ccc3c2n1C1CCN(CCC#N)CC1`, the Ratio Ki in data set [1] was determined as 7. Besides, in data set [2], the EC50 is above 6000 nM. Also, the Ki in data set [3] came out at 1.7 nM.

`Cn1ccc(CCc2nc3cnc4[nH]ccc4c3n2C2CCN(CCC#N)CC2)n1`: in [1], the Ratio Ki came out at 7.6. It took 2600 nM to reach a half-maximal effect in data set [2] (EC50). In data set [3], this molecule had an inhibition constant Ki of 13 nM.

For the molecule `N#CCCN1CCC(n2c(CC3CCOCC3)nc3cnc4[nH]ccc4c32)CC1`, in data set [1], the Ratio Ki is 4.8. Besides, the EC50 in [2] was determined as 2600 nM. The Ki in data set [3] came to 43 nM.

For the molecule `CS(=O)(=O)NCCc1nc2cnc3[nH]ccc3c2n1C1CC2CCC1C2` (racemic), the Ratio Ki in data set [1] was found to be 10. Further, the EC50 in data set [2] was determined as 50 nM. In data set [3], this molecule gave a Ki of 0.6 nM.

Turning to `N#CCCN1CCC(n2c(C3CCC3)nc3cnc4[nH]ccc4c32)CC1`, the Ratio Ki in data set [1] worked out at 3.6. In data set [2], this molecule displayed a 50% effective concentration (EC50) of 430 nM. The same molecule yielded an inhibition constant (Ki) in [3] of 4.3 nM.

Regarding `N#CCCN1CCC(n2c(CC3CCCC3)nc3cnc4[nH]ccc4c32)CC1`, the Ratio Ki in data set [1] was found to be 4.5. In addition, the half-maximal effective concentration (EC50) in [2] came out at 2000 nM. This molecule registered a Ki in [3] of 16 nM.

As to `CS(=O)(=O)NCc1nc2cnc3[nH]ccc3c2n1C1CC2CCC1O2` (racemic), the Ratio Ki in data set [1] was found to be 8. The midpoint of the response in [2], the EC50, lay at 4200 nM. For the same molecule, the Ki in data set [3] turned out to be 28 nM.

For `CC(C)c1nc2cnc3[nH]ccc3c2n1C1CCN(CCC#N)CC1`, the Ratio Ki in [1] came out at 4.2. This molecule registered an EC50 in data set [2] of 410 nM. The molecule also returned a Ki in [3] of 9.1 nM.

On to `N#CCCN1CCC(n2c(C3CC3)nc3cnc4[nH]ccc4c32)CC1`, for which the Ratio Ki in data set [1] came to 1.8. Also, a half-maximal effect in data set [2] (EC50) was put at 160 nM.

Regarding `N#CCCN1CCC(n2c(CCn3cccn3)nc3cnc4[nH]ccc4c32)CC1`, in data set [1], the Ratio Ki was found to be 2.6. In data set [2], this molecule displayed a concentration giving a half-maximal response (EC50) of 1800 nM. Besides, the Ki in data set [3] is 14 nM.

With `CCOC(=O)NCc1nc2cnc3[nH]ccc3c2n1C1CCN(CCC#N)CC1`, the Ratio Ki in [1] is 3.6. The molecule further had a concentration giving a half-maximal response (EC50) in data set [2] of 625 nM. Also, the Ki in data set [3] worked out at 8.4 nM.

Consider `CCCc1nc2cnc3[nH]ccc3c2n1C1CCN(CCC#N)CC1`, for which, in [1], the Ratio Ki was 2.1. The concentration for a half-maximal effect (EC50) in data set [2] turned out to be 275 nM. In data set [3], this molecule came in with an inhibitory constant (Ki) of 4.6 nM.

As to `CC(=O)NCc1nc2cnc3[nH]ccc3c2n1C1CC2CCC1C2` (racemic), in data set [1], the Ratio Ki was found to be 8.4. The molecule also returned a concentration giving a half-maximal response (EC50) in data set [2] of 160 nM. The same molecule yielded a Ki in [3] of 3 nM.

In the case of `CC(=O)NCCc1nc2cnc3[nH]ccc3c2n1C1CCN(CCC#N)CC1`, the Ratio Ki in data set [1] came out at 5.6. Further, the concentration for a half-maximal effect (EC50) in data set [2] is above 6500 nM. Further, in data set [3], the affinity corresponds to a Ki of 3.7 nM.

On to `CC(=O)NCc1nc2cnc3[nH]ccc3c2n1C1CCN(CCC#N)CC1`, for which the Ratio Ki in data set [1] is 5.4. In data set [2], the 50% effective concentration (EC50) is above 3800 nM.

On to `N#CCCN1CCC(n2c(CCC3CCCO3)nc3cnc4[nH]ccc4c32)CC1` (racemic), for which the Ratio Ki in data set [1] came to 5.4. In data set [2], this molecule returned an EC50 of 570 nM. Moreover, in [3], the Ki was found to be 8.7 nM.

As to `CS(=O)(=O)NCc1nc2cnc3[nH]ccc3c2n1[C@@H]1C[C@H]2CC[C@@H]1C2`, the bioavailability (in general, dose-corrected exposure relative to a reference, in per cent) in [4] is 79%. Moreover, the IC50 in data set [5], in data set [7], in data set [8], in [11] and in data set [17] was above 10 µM each time. Further, the inhibition in [6] and in data set [16] was above 50% throughout. Further, the exposure (AUC) (commonly the area under the concentration-time curve, a measure of exposure) in data set [9] was found to be 2.2 µM·h. Further, the Vd in data set [10] was determined as 4 L/kg. The apical-to-basolateral permeability (Papp A→B) – broadly, the apparent permeability from the apical to the basolateral side of a cell layer – in data set [12] came to 8.2 ×10⁻⁶ cm/s. Also, in data set [13], the concentration in solution (solubility) was 71 µM (≈ 25.5 µg/mL). Moreover, the clearance (in general, the rate of elimination divided by the concentration) in [14] turned out to be 33 mL/min/kg. Further, the half-life (in general, how long it takes for the measured level to halve) in data set [15] is 90 min.

As for `CC(=O)NCc1nc2cnc3[nH]ccc3c2n1C1CCN(CC(F)(F)F)CC1`, in data set [1], the Ratio Ki stood at 6.7. This molecule also displayed a 50% effective concentration (EC50) in [2] of 1500 nM. In addition, affinity in data set [3] was put at a Ki of 12 nM.
